Assays:
[1] = system: mouse cortical neuronal cultures
Description: In vitro mouse neuronal cultures: Cortical neuronal cultures were prepared as described Jin et al. (Neurochem. Res. 27:1105-1112, 2002) from E-16 mouse pups (C57B1/6, Jackson labs). Briefly, cortices were dissected and separated from meninges, olfactory bulbs, basal ganglia and hippocampi, and the cortices digested in 0.05% trypsin-EDTA for 15 min at 37° C. Cells were triturated and single cell suspension was plated at density of 5×10^5 cells/ml. Cells were cultured in Neurobasal A medium (Invitrogen, Carlsbad) containing 2% B27, 2 mM Glutamate. Neuronal enrichment was determined by staining for neurons, microglia and astrocytes with cell specific markers.
In vitro neuronal ischemia model: Neuronal cultures were treated with varying doses of an exemplary CpG oligonucleotide (SEQ ID NO: 1) in Neurobasal-A media supplemented with 1% Glutamax 24 hours prior to 3 hours oxygen-glucose-deprivation (OGD) treatment. OGD was performed by replacing medium with PBS containing 0.5 mM CaCl2 and 5 mM MgCl2, pH 7.4, and then placing the neuronal cultures in an anaerobic chamber (Form a Scientific) containing an atmosphere of 85% N2, 5% H2, 10% CO2 maintained at 35° C. Following OGD-treatment (3 hours), PBS was replaced with Minimum Essential Medium (MEM) and the cells returned to normoxic conditions. Percent neuronal cell death was determined by propidium iodide staining in two different fields of view in duplicate, compared to total DAPI staining in identical fields.
In vitro neuronal ischemia model: Neuronal cultures were treated with varying doses (0.1 μg/ml and 1 μg/ml) of Gardiquimod in Neurobasal-A media supplemented with 1% Glutamax 24 hours prior to 3 hours oxygen-glucose-deprivation (OGD) treatment. OGD was performed and cells analyzed as described in Example 1.
OGD was performed and cell analyzed as described in Example 1.

[2] = molecular target: T1, human TLR9 (Homo sapiens, UniProt Q9NR96); assay: NF-κB inducible SEAP reporter in 293-hTLR9 cells; assay type: cell-based; conditions: 5 μM, 18 hours; hydrolysis of pNpp at 405 nm
T1 construct: host or cells: HEK293 (293-hTLR9)
T1 sequence (Q9NR96 26-1032): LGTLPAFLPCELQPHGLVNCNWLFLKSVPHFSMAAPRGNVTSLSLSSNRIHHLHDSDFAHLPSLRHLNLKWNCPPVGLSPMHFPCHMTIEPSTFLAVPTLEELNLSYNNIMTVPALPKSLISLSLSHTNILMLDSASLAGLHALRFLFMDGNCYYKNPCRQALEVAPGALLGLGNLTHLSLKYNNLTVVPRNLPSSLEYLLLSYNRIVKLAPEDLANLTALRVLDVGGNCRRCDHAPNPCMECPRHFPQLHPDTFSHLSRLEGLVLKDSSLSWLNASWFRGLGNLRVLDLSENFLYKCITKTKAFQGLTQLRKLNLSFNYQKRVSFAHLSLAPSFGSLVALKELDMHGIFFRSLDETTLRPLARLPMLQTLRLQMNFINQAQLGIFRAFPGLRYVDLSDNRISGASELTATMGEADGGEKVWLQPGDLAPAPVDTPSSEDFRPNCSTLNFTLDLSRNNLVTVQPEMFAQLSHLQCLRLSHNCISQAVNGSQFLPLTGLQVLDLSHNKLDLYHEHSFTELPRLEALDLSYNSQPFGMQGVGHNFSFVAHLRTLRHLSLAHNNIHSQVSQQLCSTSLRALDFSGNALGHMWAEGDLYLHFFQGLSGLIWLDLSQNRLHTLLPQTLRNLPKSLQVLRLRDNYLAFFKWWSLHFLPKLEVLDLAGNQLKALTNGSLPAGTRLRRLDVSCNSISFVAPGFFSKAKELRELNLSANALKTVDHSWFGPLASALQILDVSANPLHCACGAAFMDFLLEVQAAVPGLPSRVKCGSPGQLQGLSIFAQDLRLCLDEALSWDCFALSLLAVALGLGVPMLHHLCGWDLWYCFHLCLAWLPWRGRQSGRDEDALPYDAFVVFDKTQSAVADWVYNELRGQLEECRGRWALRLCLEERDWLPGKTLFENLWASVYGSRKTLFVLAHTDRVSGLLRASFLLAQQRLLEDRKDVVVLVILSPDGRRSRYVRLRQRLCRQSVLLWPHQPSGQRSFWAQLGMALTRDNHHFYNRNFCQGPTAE
Description: FIG. 3 is a bar graph illustrating NF-κB induction following in vitro treatment with an exemplary CpG oligonucleotide. 293-hTLR9 cells transfected with an NFκB inducible reporter plasmid (pNifty2-SEAP) were treated with CpG (5 μM). NFκB induction of alkaline phosphatase expression is indicated as hydrolysis of pNpp at 405 nm.
Human embryonic kidney cell line HEK293 was transfected with an expressible nucleic acid encoding human TLR9 and with an NFκB reporter construct (InvivoGen). The dual transfected cells were incubated with a 5 μM CpG oligonucleotide (SEQ ID NO: 1) for 18 hours.

[3] = system: mice subjected to middle cerebral artery occlusion (MCAO); assay: In vivo ischemic/reperfusion model (MCAO), mouse model of stroke
Description: Ischemic/Reperfusion Model. […] Mice were anesthetized by halothane inhalation (4%/L O2) and maintained with 1.5%/L O2. The middle cerebral artery was blocked by a silicone-coated 8-0 monofilament nylon surgical suture that was threaded through the external carotid to the internal carotid and finally blocks the bifurcation into the MCA and anterior cerebral artery. The filament was maintained intraluminally for 45 min and then removed, thereby restoring blood flow. Cerebral blood flow (CBF) was monitored throughout the surgery by laser Doppler flowmetry (Periflow 5000; Perimed, Sweden). During and 2 hours following surgery, body temperatures was kept constant at 37° C. with a heating pad controlled by a thermostat. Body weights were monitored prior to and following MCAO.
Infarct calculations. […] Perfused brains were placed on a tissue slicer and sectioned into 1 mm thick coronal slices.

[4] = cited from earlier work
[5] = system: mice subjected to bilateral renal ischemia; assay: In vivo model of renal ischemia (bilateral renal clamping), serum creatinine; parameters: species or system mouse; conditions: 48 hours prior to bilateral renal clamping (45 minutes); 48 hours following reperfusion
Description: Intraperitoneal Delivery: Preconditioning agent Poly I:C (25 μg) in artificial saline or saline alone (control) was administered intraperitoneally to subject mice 72 hours prior to middle cerebral artery occlusion (MCAO; 45 minutes) as described in Example 3 or 48 hours prior to bilateral renal clamping (45 min).
Creatinine levels: To assess renal injury due to the ischemia, creatinine levels were measured 48 hours following reperfusion as follows. Mice were treated with saline or poly I:C (1.6 mg/kg; sc) 48 hrs prior to renal ischemia. Just prior to surgery blood was collected via the saphenous vien for baseline determination of creatinine levels. Bilateral ischemia was induced as follows: mice were anesthestized with 3% isoflurane and maintained at 1.5-2% throughout surgery. A midline incision was made and both kidneys exteriorized and clamps placed on the artery and veins of each kidney for 45 minutes. After ischemia, the clamps were withdrawn inducing reperfusion and the incision sutured up. Mice were euthanized 48 hr post initiation of reperfusion and blood collected. Serum levels of creatinine were determined via a commercially available immunoassay.

[6] = system: mouse cortical neuronal cultures; assay: In vitro neuronal ischemia model, treatment after OGD; assay type: cell-based; conditions: 1 to 100 μg/ml after 3 hours OGD; analyzed 24 hours later
Description: In vitro neuronal ischemia model: Neuronal cultures were exposed to 3 hours oxygen-glucose-deprivation (OGD) treatment as described in Example 1. After OGD, cells were treated with 1 to 100 μg/ml Poly I:C. 24 hours later cells were analyzed as described in Example 1.

[7] = system: TNF-α; assay: Serum TNF-α in mice, immunoassay; assay type: in vivo, mouse; conditions: 1 mg/kg, 2 hours prior to serum collection
Description: (§1) Mice were injected with saline, CpG (0.8 mg/kg) LPS (0.4 mg/kg) or Poly I:C (1 mg/kg) 2 hours prior to serum collection. Levels of TNF-α and IFN-β were measured using commercially available immunoassay kits.

[8] = system: IFN-β; assay: Serum IFN-β in mice, immunoassay; assay type: in vivo, mouse; conditions: 1 mg/kg, 2 hours prior to serum collection; versus CpG 0.8 mg/kg and LPS 0.4 mg/kg
Description: as §1

[9] = 0.2-1.6 mg/kg subcutaneous 72 hours prior to 60 minutes MCAO, 24 hours post MCAO

Molecule: 5′-tccatgacgttcctgacgtt-3′ [CpG oligonucleotide (SEQ ID NO: 1)]
- neuroprotection against oxygen-glucose deprivation (percent neuronal cell death) ([1]; treated 24 hours prior to 3 hours OGD, propidium iodide staining): confers neuroprotection against oxygen-glucose deprivation
- NFκB induction of alkaline phosphatase expression [2]: produced alkaline phosphatase
- percent infarct, time course of preconditioning ([3]; 20 μg administered between 72 and 24 hours prior to MCAO): peak preconditioning
- percent infarct, time course of preconditioning ([3]; 20 μg administered up to a week prior to MCAO): significant preconditioning
- percent infarct ([3]; intraperitoneal, 72 hours prior to 45 min MCAO): percent infarct was significantly decreased

Molecule: CCOCc1nc2c(N)nc3ccccc3c2[nH]1 [CL097]
- water solubility [4]: ≥ 20 mg/mL

Molecule: CCNCc1nc2c(N)nc3ccccc3c2n1CC(C)(C)O [Gardiquimod]
- neuroprotection against oxygen-glucose deprivation (% cell death) ([1]; 0.1 or 1 μg/ml 24 hours prior to OGD (3 hours), propidium iodide staining 24 hours following OGD): confers neuroprotection against oxygen-glucose deprivation
- percent infarct (% of hemisphere with infarction) ([3]; 0.2-1.6 mg/kg 72 hours prior to 60 minutes MCAO, TTC staining 24 hours later): percent infarct was significantly decreased in a dose-dependent fashion
- focal neurological deficit [3, 9]: reduced neurological deficits
- general neurological deficit [3, 9]: reduced neurological deficits

Molecule: CC(C)Cn1cnc2c(N)nc3ccccc3c21 [imiquimod]
- infarct size ([3]; mouse, in vivo, ip): protects against cell death

Molecule: CCOCc1nc2c(N)nc3ccccc3c2n1CC(C)(C)O [resiquimod]
- infarct size ([3]; 0.8 mg/kg s.c. 72 hours prior to MCAO, 24 hours following MCAO): provides neuroprotection against cerebral ischemia

Molecule: lipopolysaccharide [LPS]
- infarct size (neuroprotection) ([3]; mouse, in vivo, 0.4 mg/kg): no considerable neuroprotection

Molecule: polyinosinic polycytidylic acid [Poly I:C]
- cell death without exposure to OGD ([1]; highest dose, no OGD): did not induce cell death
- neuroprotection against oxygen-glucose deprivation (cell death by PI staining) ([1]; mixed cortical cultures, increasing doses 24 hours prior to OGD): induces neuroprotection against oxygen-glucose deprivation
- serum creatinine levels (renal injury) [5]: reduced the injury to baseline levels
- neuroprotection, treatment after oxygen-glucose deprivation [6]: induces neuroprotection
- serum TNFα levels [7]: increases TNFα levels
- serum IFNβ levels [8]: produces significantly more IFNβ than stimulation of TLR9 or TLR4
- percent infarct ([3]; 25 μg intraperitoneally 72 hours prior to 45 minutes MCAO, TTC 72 hours following surgery): percent infarct was significantly decreased

From US20100130425A1, “USE OF TOLL-LIKE RECEPTOR LIGANDS IN TREATING EXCITOTOXIC INJURY, ISCHEMIA AND/OR HYPOXIA” (Oregon Health & Science University, priority 2005, published 2010)
